The source of these data is US9241968B2, “Nonapeptide with anti-tumour activity” (Lytix Biopharma AS, priority 2008, dated 2016).

Data set [1] deals with panel of 10 lymphoma cell lines. Nature of the data set: In vitro cytotoxic activity on lymphoma cells, MTS assay, panel summary. The note with it: range stated in conclusions. Format: cell-based, human. An excerpt: (§1) • To determine the concentrations of five novel compounds to obtain a 50% inhibition of proliferation (IC50) against a panel of 10 lymphoma cell lines. 2. Materials and Methods 2.1. Test Substances 2.1.1. Test Substances • Test substances, LTX-302, LTX-313, LTX-315, LTX-320 and LTX-329 (see Table 1) provided in powder form. 2.1.2. Positive Control • Triton X-100 was used as positive control and supplied by Oncodesign (Dijon, France) from Sigma (Saint Quentin Fallavier, France). 2.1.3. Drug vehicle and storage condition • Compounds were stored at 4° C. Powder was first dissolved in serum free culture medium (RPMI 1640, Lonza, Verviers, Belgium) and further diluted using serum-free culture medium to reach appropriate dilutions. Stock solution was not stored and was prepared fresh the day of experiment. • 1% (final concentration) Triton X-100 was obtained by dilution using culture medium. 2.2. Tumor Cell Lines and Culture Conditions 2.2.1. Tumor Cell Lines
Tumor cells were grown as suspensions at 37° C. in a humidified atmosphere (5% CO2, 95% air). The culture medium for each cell line is described in the Table 3 below. For experimental use, cells were counted in a hemocytometer and their viability was assessed by 0.25% trypan blue exclusion.
Tumor cells were plated in 96-well flat-bottom microtitration plates (Nunc, Dutscher, Brumath, France) and incubated at 37° C. for 24 hours before treatment in 190 μl of drug-free and FBS-free culture medium.
Tumor cells were incubated for 4 hours with 10 concentrations of compounds in ¼ dilution step with a top dose of 400 μM (range 4×10^−4 to […]), with 1% (final concentration) Triton X-100 as positive control and FBS-free culture medium as negative control. The cells (190 μl) were incubated in a 200 μl final volume of FBS-free culture medium containing test substances at 37° C. under 5% CO2.
Three independent experiments were performed, each concentration being issued from quadruplicate. Control cells were treated with vehicle alone. At the end of treatments, the cytotoxic activity was evaluated by a MTS assay (see §3.3 below). […]
At the end of the cells treatment, 40 μl of a 0.22 μm filtered freshly combined solution of MTS (20 ml at 2 mg/ml, Ref G1111, Batch 235897, Exp March/2009, Promega, Charbonnières, France) and PMS (1 ml at 0.92 mg/ml, Ref P9625, Batch 065K0961, Sigma) in Dulbecco's Phosphate Buffered Saline (DPBS, Ref 17-513Q, Batch 6MB0152, Cambrex), were added in each well. […] Absorbency (OD) were measured at 490 nm in each well using VICTOR^3™ 1420 multilabeled counter (Wallac, PerkinElmer, Courtaboeuf, France).
4.1. IC50 Data was Determined as in Example 1

For data set [2], the system named is panel of 37 human cancer cell lines. Briefly: In vitro cytotoxic activity, MTS assay, panel summary. Format: cell-based. The settings on record: range stated in conclusions. The protocol: as §1, with “2.” for “• To determine the concentrations of five novel compounds to obtain a 50% inhibition of proliferation (IC50) against a panel of 10 lymphoma cell lines. 2.”, “control,” for “control and”, “Vehicle” for “vehicle”, “Storage Conditions” for “storage condition”
Tumor cells were grown as adherent monolayers or as suspensions at 37° C. in a humidified atmosphere (5% CO2, 95% air). The culture medium was RPMI 1640 containing 2 mM L-glutamine (Lonza, Belgium) and supplemented with 10% fetal bovine serum (FBS, Lonza). For experimental use, the adherent cells were detached from the culture flask by a 5-minute treatment with trypsin-versene (Lonza), diluted in Hanks' medium without calcium or magnesium (Lonza) and neutralized by addition of complete culture medium. Cells were counted in a hemocytometer and their viability was assessed by 0.25% trypan blue exclusion.
Tumor cells were plated in 96-well flat-bottom microtitration plates (Nunc, Dutscher, Brumath, France) and incubated at 37° C. for 24 hours before treatment in 190 μl of drug-free culture medium supplemented or not with 10% FBS for adherent or suspension growing cell lines, respectively.
The adherent cell lines were washed once with 200 μl FBS-free culture medium before treatment. […]
Three (3) independent experiments were performed, each concentration being tested in quadruplicate. […] At the end of treatments, the cytotoxic activity was evaluated by a MTS assay (see §3.3). […]
At the end of the cells treatment, 40 μl of a 0.22 μm filtered freshly combined solution of MTS (20 ml at 2 mg/ml, Ref G1111, Batch 235897, Exp March/2009, Promega, Charbonnières, France) and PMS (1 ml at 0.92 mg/ml, Ref P9625, Batch 065K0961, Sigma) in Dulbecco's Phosphate Buffered Saline (DPBS, Ref 17-513Q, Batch 6MB0152, Cambrex), were added in each well. […] Absorbency (OD) were measured at 490 nm in each well using VICTOR^3™ 1420 multilabeled counter (Wallac, PerkinElmer, Courtaboeuf, France). […]
The dose-response curves were plotted using XLFit 3 (IDBS, United Kingdom). The IC50 determination values were calculated using the XLFit 3 software from semi-log curves. […]

The test system of data set [3] is murine A20 B-cell lymphoma. Nature of the data set: Intratumoral treatment of murine A20 B-cell lymphoma tumours in mice. It counts as in vivo. The note with it: Group 1 (1 mg) compared to the other two groups. Here is the method:
The aim of the study was to investigate the effect of LTX-315 at different dose levels on a murine A20 B-cell lymphoma in mice.
The administration took place by intratumoral injection of LTX-315 dissolved in sterile saline.
Female mice were inoculated subcutaneously in the abdomen with 5 million murine A20 cells (ATCC, LGC Promochem AB, Middlesex, England) in a volume of 50 μl. The mice were divided into four groups (see Table 5 below for details). The intratumoral treatment was initiated when the tumours had reached the desired size of approximately 5 mm in diameter (minimum of 20 mm^2).
Three dose levels of LTX-315, 1 mg (Group 1), 0.5 mg (Group 2) and 0.25 mg (Group 3) per injection, were investigated. The volume was 50 μl for all injections. LTX-315 was dissolved in sterile 0.9% NaCl water solution. This vehicle was used as control (Group 4). All four groups received three injections.
A caliper was used for tumour size measurements and weighing and physical examination were used as health control.
Animals: Specific pathogen-free female Balb/c mice, 6-8 weeks old, supplied form Harlan (England, UK)

Non-standard residues stand in square brackets, D forms with d. Residues, ends and D or L forms follow the SMILES beside them. Bip = N[C@@H](Cc1ccc(-c2ccccc2)cc1)C(=O)O; dBip = N[C@H](Cc1ccc(-c2ccccc2)cc1)C(=O)O; Dip = N[C@H](C(=O)O)C(c1ccccc1)c1ccccc1

Take `NCCCC[C@H](NC(=O)[C@H](Cc1c[nH]c2ccccc12)NC(=O)[C@H](CCCCN)NC(=O)[C@H](CCCCN)NC(=O)[C@@H](NC(=O)[C@H](Cc1c[nH]c2ccccc12)NC(=O)[C@H](CCCCN)NC(=O)[C@H](CCCCN)NC(=O)[C@@H](N)Cc1c[nH]c2ccccc12)C(c1ccccc1)c1ccccc1)C(N)=O` [LTX-302, W-K-K-W-Dip-K-K-W-K-NH2] (H-WKKW[Dip]KKWK-NH2; N-terminus assumed): in data set [1], the “IC50 values against the 10 human lymphoma cell lines (cytolytic activity), in words” value is on record as “micromolar range”. For the same molecule, the “IC50 values against 37 human cancer cell lines (cytolytic activity), in words” value in data set [2] is “micromolar to ten micromolar range”.

As for `NCCCC[C@H](NC(=O)[C@H](Cc1c[nH]c2ccccc12)NC(=O)[C@H](Cc1c[nH]c2ccccc12)NC(=O)[C@H](CCCCN)NC(=O)[C@H](CCCCN)NC(=O)[C@H](Cc1c[nH]c2ccccc12)NC(=O)[C@H](Cc1ccc(-c2ccccc2)cc1)NC(=O)[C@H](CCCCN)NC(=O)[C@@H](N)CCCCN)C(N)=O` [LTX-313, K-K-Bip-W-K-K-W-W-K-NH2] (H-KK[Bip]WKKWWK-NH2; N-terminus assumed), the “IC50 values against the 10 human lymphoma cell lines (cytolytic activity), in words” value in data set [1] was “micromolar range”. In data set [2], the “IC50 values against 37 human cancer cell lines (cytolytic activity), in words” value is given as “micromolar to ten micromolar range”.

Regarding `NCCCC[C@H](NC(=O)[C@@H](NC(=O)[C@H](Cc1c[nH]c2ccccc12)NC(=O)[C@H](CCCCN)NC(=O)[C@H](CCCCN)NC(=O)[C@H](Cc1c[nH]c2ccccc12)NC(=O)[C@H](Cc1c[nH]c2ccccc12)NC(=O)[C@H](CCCCN)NC(=O)[C@@H](N)CCCCN)C(c1ccccc1)c1ccccc1)C(N)=O` [LTX-315, K-K-W-W-K-K-W-Dip-K-NH2] (H-KKWWKKW[Dip]K-NH2), in data set [3], the “necrosis and wound formation” value was “stronger necrosis and more wound formation”.

Consider `N=C(N)NCCC[C@H](NC(=O)[C@H](Cc1c[nH]c2ccccc12)NC(=O)[C@H](Cc1c[nH]c2ccccc12)NC(=O)[C@H](CCCNC(=N)N)NC(=O)[C@H](CCCNC(=N)N)NC(=O)[C@@H](NC(=O)[C@H](Cc1c[nH]c2ccccc12)NC(=O)[C@H](CCCNC(=N)N)NC(=O)[C@@H](N)CCCNC(=N)N)C(c1ccccc1)c1ccccc1)C(N)=O` [LTX-320, R-R-W-Dip-R-R-W-W-R-NH2] (H-RRW[Dip]RRWWR-NH2; N-terminus assumed), for which the “IC50 values against the 10 human lymphoma cell lines (cytolytic activity), in words” value in data set [1] is given as “micromolar range”. The “IC50 values against 37 human cancer cell lines (cytolytic activity), in words” value in data set [2] is on record as “micromolar to ten micromolar range”.

Take `NCCCC[C@@H](N)C(=O)N[C@H](CCCCN)C(=O)N[C@H](Cc1ccc(-c2ccccc2)cc1)C(=O)N[C@H](Cc1c[nH]c2ccccc12)C(=O)N[C@H](CCCCN)C(=O)N[C@H](CCCCN)C(=O)N[C@H](Cc1c[nH]c2ccccc12)C(=O)N[C@H](Cc1c[nH]c2ccccc12)C(=O)N[C@H](CCCCN)C(N)=O` [LTX-329, k-k-bip-w-k-k-w-w-k-NH2] (H-[dK][dK][dBip][dW][dK][dK][dW][dW][dK]-NH2; N-terminus assumed): the “IC50 values against the 10 human lymphoma cell lines (cytolytic activity), in words” value in data set [1] is “micromolar range”. For the same molecule, the “IC50 values against 37 human cancer cell lines (cytolytic activity), in words” value in data set [2] is given as “micromolar to ten micromolar range”.
